The values below come from US4826984A, “Heteroarotinoid compounds as anticancer agents” (The Board of Regents for the Oklahoma Agricultural and …, priority 1987, dated 1989).

Each structure is given as a SMILES string. Entries after “also recorded” stand apart in the source; their conditions may differ. Read-outs that look alike come from different tables or passages of the source. A value given as a limit tells only on which side of the number the result lay.

Assay [1] has as its system tracheal organ cultures obtained from vitamin A deficient hamsters. Kind of assay: tissue or blood. The class given is cell-based, hamster. The following applies: for EC50: Mesocricetus auratus, dose for reversal of keratinization in epithelium of 50% of retinoid-deficient hamster tracheas in organ culture, trans-retinoic acid run with each compound, read-out: ED50 (the source's name); for activity relative to all trans-retinoic acid: log units less than the standard; for activity (in words): reversal of keratinization. An excerpt: An evaluation of the anticancer properties of the heteroarotinoids was made via the standard hamster tracheal organ culture bioassay (see D. L. Newton, W. R. Henderson, and M. B. Sporn in Structure-Activity Relationships of Retinoids, National Cancer Institute, Revised Edition, Feb. 26, 1980; and D. L. Newton, W. R. Henderson, and M. B. Sporn, Cancer Research, 40, 3413 [1980]). The assay involves the ability of a test compound in vitro to reverse keratinization in tracheal organ cultures obtained from vitamin A deficient hamsters. The relationship of vitamin A deficient epithelial tissues and precancerous lesions is well known (see C. E. Orfanos, Retinoids-Advances in Basic Research and Therapy, Springer-Verlag, New York, 1981). For example, the addition of retinoids can reverse the anaplastic epithelial lesions induced in prostate glands by chemical carcinogens (see D. P. Chopra and L. J. Wilkoff, Proc. Am Assoc. Cancer Research, 16, 35 (1975); and I. Lasnitzki, British Journal of Cancer, 9, 434 [1955]). The basic procedure for the bioassay involving the vitamin A deficient hamster tracheal organ culture is presented below with the results obtained for some of the compositions.
The harvested tracheas were cultured in a serum-free medium and were gassed with 50% O2, 45% N2, and 5% CO2. The serum-free culture consists of CMRL Medium 1066 with crystalline bovine insulin (1.0 μg/mL), hydrocortisone hemisuccinate (0.1 μg/mL), glutamine (2 mM), pencillin (100 inits/mL), and streptomycin (100 μg/mL). The cultures were incubated for 3 days at 35°-36° C. After incubation in the retinoid-free medium, some of the tracheas were harvested. Most of the specimens had significant squamous metaplasia. The remaining cultures were divided into 3 groups. The first group was treated with the experimental heteroarotinoid in spectrograde dimethyl sulfoxide (DMSO) at concentrations of 10^-8 M, 10^-9 M, and 10^-10 M (final concentration of DMSO in culture medium was 0.1%). […] A final culture was prepared with only DMSO present.
The culture medium was changed three times per week for 10 days. At the end of that time, all tracheas were harvested and fixed in a 4% (or sometimes 10%) formaldehyde-1% glutaraldehyde solution. The material was then embedded in paraffin and cross-sections of the tracheas were examined under a microscope for the presence of keratin or keratohyaline granules. A synthetic retinoid was judged as having good anticancer activity if neither keratin nor keratohyaline granules were present or if only keratohyaline granules were […]. […] Sloughing of the cells in the culture studies was common with the toxic all trans-retinotic acid but was not observed with the heteroarotinoids in this work.
^a ED50 (M) is the dose for reversal of keratinization in
epithelium of 50% of retinoiddeficient hamster tracheas in organ culture.

Assay [2] relates to ornithine decarboxylase (ODC). Kind of assay: suppression of TPA induced ornithine decarboxylase (ODC) in mouse skin. The class given is in vivo. The settings on record: for activity in inhibiting ODC induction by TPA (in words): mouse, in vivo. Here is the method: In the ODC assay, either 13-cis-retinoic acid or trans-retinoic acid was employed. The following Table summarizes the result of the ODC assays.
In the screening tests of the Table, the selected retinoids in 0.2 ml of acetone were applied 1 hour before the application of 10 nmole of TPA to the shaved backs of mice; the mice where then sacrificed for ODC assay 5 hours after TPA treatment. Epidermus was separated, homogenized, and centrifuged at 30,000×g. Soluble epidermal ODC activity was assayed. The retinoids were evaluated in three independent experiments (3 groups of mice with 3 mice per group) and the results from the experiments were normalized (% inhibition) for comparison. […] Which standard is used appears to be relatively unimportant for determining activity in the assay, but the data presented in the Table identifies the standard for sake of clarity and accuracy of presentation. Thus, the presence of the heteroatom in these arotinoids has not eliminated biological activity. […] Consequently, the nature of the terminus group is also important.

The test system of the next assay is HL-60 cells. The assay is described as follows: induction of differentiation of HL-60 cells (NBT reduction). The class given is cell-based, human. The settings on record: for cells induced to differentiate: 3 μM; for EC50: Homo sapiens. Here is the method: In order to evaluate the efficacy of the heteroarotinoids to induce HL-60 cell differentiation along the granulocytic maturation pathway, HL-60 cells were grown in a serum-free medium consisting of HRPMI 1640 supplemented with […] 4-(2-hydroxyethyl)-1-piperazineethane sulfonic acid, 5 μg of insulin/mL, and 5 μg of transferrin/mL. These mature cells, unlike the uninduced HL-60, produced superoxide anion when simulated with an appropriate agent, such as TPA. The ability of the individual cells to produce superoxide can be measured by incubating cells with the water-soluble yellow dye, nitroblue tetrazolium (NBT). NBT is reduced to a water-insoluble blue-black formazan by superoxide. This formazan precipitate is associated with those cells that produce superoxide. Thus, the percentage of cells in a population that produce superoxide (NBT-positive cells) can be enumerated under a light microscope.
After incubation for 4 days at 37° C. in a humidified atmosphere of 5% CO2 and air, the capacity of the cells to reduce NBT was determined. Viable cells (10^6) were harvested by centrifugation and suspended in 0.5 mL of RPMI 1640 containing 20% fetal bovine serum. This cell suspension was mixed with an equal volume of phosphate buffered saline containing 1 mg of NBT/mL and […]. The reaction mixture was incubated at 37° C. for 25 minutes, and the reaction was terminated by cooling in an ice water bath. Cytospin slides were prepared from a portion of this reaction mixture and stained with Wright-Giemsa. A minimum of 200 cells were counted under light microscopy to determine the percentage of cells with cell-associated formazan.

Setting [3] is: 17 nmol retinoid + TPA, first experiment.
[4] abbreviates: 17 nmol retinoid + TPA, second experiment.
The mark [5] stands for this setting: 13-cis-retinoic acid as the standard.
The mark [6] stands for this setting: HL-60, 96 h, 4 days at 37° C., read-out: ED50 (half-maximal response).
Setting [7] is: 34 nmol retinoid + TPA, third experiment (standard trans-retinoic acid).
Setting [8] is: trans-retinoic acid as a standard.
Setting [9] is: 34 nmol retinoid + TPA, second experiment (standard 13-cis-retinoic acid).

Turning to `CCOC(=O)c1ccc(/C=C(\C)c2ccc3c(c2)C(C)(C)CCS3)cc1` [1 (X = S, R = C2 H5), Ethyl (E)-4-[2-(3,4-dihydro-4,4-dimethyl-2H-1-benzothiopyran-6-yl)-1-propenyl]benzoate], the “% Active” value in assay [1] (10^-9 M) was 100%; in assay [1] (10^-10 M), 53.8%; in assay [1] (10^-11 M), 28.6%; in assay [1] (10^-12 M), 33.7%. Also, the EC50 in assay [1] was 0.06 nM. Moreover, the “activity relative to all trans-retinoic acid” value in assay [1] is given as “approximately one-half log unit less than the all trans-retinoic acid”. In addition, the “activity (in words)” value in assay [1] is recorded as “very good activity”.

Regarding `CC1=C(/C=C/C(C)=C/C=C/C(C)=C\C(=O)O)C(C)(C)CCC1` [13-cis-retinoic acid, reference compound], the results for the “% of Inhibition as Compared to Control” value in assay [2] (setting [3]) and in assay [2] (setting [4]) were 89% and 92%, respectively. The “ODC Activity” value in assay [2] (setting [3]) is on record as 0.1 ± 0.01 nmol CO2 /30 min/mg protein; in assay [2] (setting [4]), 0.14 ± 0.04 nmol CO2 /60 min/mg protein. The “relative activities in suppressing TPA induction of ODC” value (from here on “relative activities”) in assay [2] (setting [5]) was 13-cis-retinoic acid 31>34.

Consider `CCOC(=O)c1ccc(/C=C(\C)c2ccc3c(c2)C(C)(C)CCO3)cc1` [(X = O, R = C2 H5), Ethyl (E)-4-[2-(3,4-Dihydro-4,4-dimethyl-2H-1-benzopyran-6-yl)-1-propenyl]benzoate], for which the “% Active” value in assay [1] (10^-9 M) stood at 100%; in assay [1] (10^-10 M), 50.0%; in assay [1] (10^-11 M), 28.2%. The EC50 in assay [1] was found to be 0.1 nM. Further, the “activity relative to all trans-retinoic acid” value in assay [1] is on record as “only one log unit less than the standard all trans-retinoic acid”. Also, the “activity (in words)” value in assay [1] is given as “good activity”.

For `C/C(=C\c1ccc(C(=O)O)cc1)c1ccc2c(c1)C(C)(C)CCO2` [(X = O, R = H), (E)-4-[2-(3,4-Dihydro-4,4-dimethyl-2H-1-benzopyran-6-yl)-1-propenyl]benzoic Acid], the “% Active” value was 100% in assay [1] (10^-8 M), 100% in assay [1] (10^-9 M), 57.1% in assay [1] (10^-10 M) and 11.14% in assay [1] (10^-11 M). Moreover, the EC50 in assay [1] was determined as 0.2 nM. Also, the “activity relative to all trans-retinoic acid” value in assay [1] is listed as “only one log unit less than the standard all trans-retinoic acid”. Besides, the “activity (in words)” value in assay [1] is listed as “good activity”.

For the compound `CCOC(=O)c1ccc(/C=C(\C)c2ccc3c(c2)C(C)(C)CC[S+]3[O-])cc1` (stereo not shown) [(X = S)--O, R = C2 H5), Ethyl (E)-4-[2-(3,4-Dihydro-4,4-dimethyl-2H-1-benzothiopyran-1-oxo-6-yl)-1-propenyl]benzoate], the “% Active” value in assay [1] (10^-8 M) is 71.4%; in assay [1] (10^-9 M), 71.4%; in assay [1] (10^-10 M) it was 18.6%. The EC50 in assay [1] came to 0.6 nM. For the same compound, in assay [1], the “activity (in words)” value was “less active but nevertheless displayed activity within the range of the standard”.

In the case of `C/C(=C\c1ccc(C(=O)O)cc1)c1ccc2c(c1)C(C)(C)CCO2` [acid derived from 34], the “cells induced to differentiate” value in the assay with HL-60 cells is reported as “approximately 15%”. Further, the EC50 with HL-60 cells (setting [6]) was > 3000 nM; with HL-60 cells (HL-60, restated in discussion, read-out: ED50 (the source's name)), < 3000 nM.

As to `COC(=O)c1ccc(/C=C(\C)c2ccc3c(c2)C(C)(C)CO3)cc1` [compound 24, Methyl (E)-4-[2-(2,3-Dihydro-3,3-dimethyl-5-benzofuranyl)-1-propenyl]benzoate], the “cells induced to differentiate” value in the assay with HL-60 cells lay in the range of 3 to 5%. The EC50 in the assay on HL-60 cells (setting [6]) is > 3000 nM. In addition, in assay [2] (setting [7]), the “% of Inhibition as Compared to Control” value was found to be 72% and the “ODC Activity” value is 1.5 ± 0.4 nmol CO2 /60 min/mg protein. In assay [2], the “activity in inhibiting ODC induction by TPA (in words)” value (“activity in inhibiting ODC induction” for short) is given as “strongest activity; also recorded: strong activity as compared to the control”. The “relative activities” value in assay [2] (setting [8]) was “trans-retinoic acid >24>35>36”.

With `COC(=O)c1ccc(/C=C(/C)c2ccc3c(c2)C(C)(C)CO3)cc1` [compound 25], the “cells induced to differentiate” value with HL-60 cells is listed as 3 to 5%.

As for `C/C(=C\c1ccc(C(=O)O)cc1)c1ccc2c(c1)C(C)(C)CO2` [compound 26, (E)-4-[2-(2,3-Dihydro-3,3-dimethyl-5-benzofuranyl)-1-propenyl]benzoic acid], the EC50 in the assay with HL-60 cells (setting [6]) was > 3000 nM.

Turning to `COC(=O)c1ccc(/C=C(\C)c2ccc3c(c2)C(C)(C)CCO3)cc1` [compound 31, Methyl (E)-4-[2-(3,4-Dihydro-4,4-dimethyl-2-H-1-benzopyran-6-yl)-1-propenyl]benzoate], the “cells induced to differentiate” value in the assay on HL-60 cells was “approximately 15%”. The EC50 with HL-60 cells (setting [6]) was > 3000 nM. For the same compound, in assay [2] (setting [9]), the “% of Inhibition as Compared to Control” value came to 43% and the “ODC Activity” value was 0.95 ± 0.06 nmol CO2 /60 min/mg protein. Further, the “relative activities” value in assay [2] (setting [5]) is listed as 13-cis-retinoic acid 31>34. Moreover, in assay [2], the “activity in inhibiting ODC induction” value is reported as “less active”.

Turning to `C/C(=C\c1ccc(C#N)cc1)c1ccc2c(c1)C(C)(C)CCO2` [compound 34], in assay [2] (setting [9]), the “ODC Activity” value was 1.77 ± 0.32 nmol CO2 /60 min/mg protein. Besides, in assay [2] (setting [5]), the “relative activities” value is recorded as 13-cis-retinoic acid 31>34.

In the case of `C/C(=C\c1ccc(CO)cc1)c1ccc2c(c1)C(C)(C)CCO2` [compound 35, (E)-4-[2-Methyl-2-(4,4-dimethyl-6-chromanyl)]benzyl Alcohol], the EC50 with HL-60 cells (setting [6]) was > 3000 nM. Further, in assay [2] (setting [7]), the “% of Inhibition as Compared to Control” value is 68% and the “ODC Activity” value is on record as 1.7 ± 0.1 nmol CO2 /60 min/mg protein. Further, the “activity in inhibiting ODC induction” value in assay [2] is on record as “less active”. For the same compound, the “relative activities” value in assay [2] (setting [8]) is “trans-retinoic acid >24>35>36”.

Take `C/C(=C\c1ccc(C=O)cc1)c1ccc2c(c1)C(C)(C)CCO2` [compound 36]: in assay [2] (setting [7]), the “% of Inhibition as Compared to Control” value is 34% and the “ODC Activity” value was 3.5 ± 0.2 nmol CO2 /60 min/mg protein. The “activity in inhibiting ODC induction” value in assay [2] is given as “less active”. Besides, the “relative activities” value in assay [2] (setting [8]) is recorded as “trans-retinoic acid >24>35>36”.
